Source: patent US20050020542A1, “Method of modulating sodium ion absorption in epithelial cells” (priority 2001, published 2005)
“Also recorded” adds a separate entry of the source.

Columns and labels:
[1] = system: human CF nasal epithelia; assay: Blue Dextran volume transport assay (fluid absorption); assay type: cell-based
Description: In normal human airway epithelia, Na^+ and Cl^− currents (CFTR and Ca^2+-activated Cl^− currents) contribute to airway surface liquid (ASL) fluid volume regulation depending on signaling equilibria. In contrast, in human CF airway epithelia, Na^+ currents through ENaC dominate basal ASL volume regulation accompanied by a relatively minor contribution through Ca^2+-activated Cl^− currents. The combination of enhanced ENaC currents and transient Ca^2+-activated Cl^− currents in CF result in an inadequate hydration of the ASL and reduction of mucociliary clearance. Since INO-E2 reduces Na^+ transport through ENaC, we hypothesized that INO-E2 would have a functional effect, similar to amiloride, and inhibit fluid absorption. To test this hypothesis, we exposed well differentiated monolayer cultures of CF nasal epithelia to an apically applied buffer containing INO-E2 and a known concentration of the non-permeable molecule Blue Dextran (BD). The resulting reduction in the ability of these monolayers to concentrate BD was taken as a functional indicator of INO-E2's involvement in the inhibition of ENaC.
HEPES Modified Ringer's Buffer (HMRB) was used for these assays. HMRB was sterilized by positive pressure filtration through a 0.2 um syringe tip filter (Gelman acrodisc). The BD stock solution was aseptically prepared with sterile buffer (2 mg BD/ml buffer). Compounds to be tested were solubilized in sterile HMRB containing 1 μM BD (final concentration of vehicle is 0.1% (1:1, DMSO+DMSO containing 5% pluronic-F127). […] A standard concentration curve was obtained by determining the optical densities of a serial dilution of 10 μM Blue Dextran in HMRB placed in a Falcon 3027 96-well plate. The optical density of BD in the solution was obtained by analysis at 660 nm in a Packard Spectracount. Standards and samples were analyzed on the same plate. 50 μl volumes were used for all samples and standards. The [BD] of the samples was determined by extrapolation from the standard curve using the Packard I-Smart software. The increase in [BD] from the starting value of 1 μM was taken to be an indication of the magnitude of volume absorption occurring across the monolayer. The rate of absorption was calculated by dividing the change in volume by the duration of the experiment. This value was normalized to a surface area of 1 cm^2, to give μl·cm^2−1·hr^−1. To address evaporative loss, which would appear in the data as artificially high absorptive rates, dummy membranes were constructed by attaching a thin Sylgard sheet to snapwells/transwells with silicon sealant. These dummy membranes were used in parallel with the epithelial monolayers to assess evaporative loss for each experiment.

[2] = system: CFHNE monolayers; assay: Monolayer resistance / tight junction integrity in Ussing chambers (toxicity); assay type: cell-based, human
Protocol: 3. In addition, delayed toxic effects could result in long-term damage of the monolayers that would not become apparent for several hours. Therefore, it is of interest to note whether the resistance or conductance was affected during this period. A reduction in resistance in monolayers treated with compound could indicate weakened tight junctions.
[…] […] As a control, the effect of pretreatment with phosphate-propionoxymethyl ester (26.6 μM) was tested using the same protocol.

[3] = system: Ca2+ activated Cl- secretion; assay: ATP-stimulated Cl- secretion after amiloride in Ussing chambers; assay type: cell-based, human; conditions: repeated exposure 1-2.5 μM over 96 hours, then amiloride, then apical ATP
Protocol: FIG. 3 is a graph showing the effect of repeated exposure to INO-E2 on physiological parameters in CFHNE. 2.5 μM INO-E2 was added every 24 hrs for 4 days. Effects on Isc in CFHNE, passage 2 are depicted. Every 24 hrs medium in the basolateral compartment was exchanged with fresh medium containing 2.5 μM INO-E2. On the 4th day the monolayers were mounted in Ussing chambers and basal Isc, conductance and resistance measured. After a stable baseline was reached, amiloride was added to determine the amiloride-inhibitable-Isc. Under these conditions, subsequent apical addition of the Ca^2+-mobilizing agent, ATP, allows Cl^− secretion to be examined in isolation.
The therapeutic potential of INO-E2 was investigated by using protocols that model in vivo treatments. In this experiment the effects of repeated exposure to a low dose of INO-E2 (2.5 μM) on basal Isc and responsiveness to calcium-mobilizing agonists (ATP) in human nasal CF epithelia (CFHNE) was tested. […] T here was no apparent difference in responses to compound added to the apical or basolateral compartment. This series of experiments provides information that useful for deriving the optimal therapeutic dose and delivery schedule for in vivo tests.

CCCCCCCCOC1C(OC(=O)CCC)C(OP(=O)(OCOC(=O)CC)OCOC(=O)CC)C(OP(=O)(OCOC(=O)CC)OCOC(=O)CC)C(OP(=O)(OCOC(=O)CC)OCOC(=O)CC)C1OP(=O)(OCOC(=O)CC)OCOC(=O)CC (stereo not drawn) [INO-E2, 2-O-butyryl-1-O-octyl-myo-inositol 3,4,5,6-tetrakisphosphate octakis (propionoxymethyl) ester]
change of potency on fluid absorption with repeat administration ([1]; 2 hours each day for 8 days at 0.1 μM or 1 μM, n=6): enhancement of compound potency | potency compared with amiloride in fluid secretion assay ([1]; comparison 100 μM amiloride): as potent as amiloride | duration of effects compared with amiloride ([1]; conditions that model therapeutic exposure times): longer-lasting | duration of effect on fluid secretion following a brief (pulsed) exposure ([1]; pulsed exposure, FIG. 17): prolonged effects | toxicity on repeated exposure (deterioration of tight junctions) ([2]; 1-2.5 μM repeatedly over 96 hours): no indication of toxicity; also recorded: No evidence of toxicity | toxic effects as evaluated by tight junction integrity ([2]; 2 hr exposure 24 hrs before, up to highest concentration 200 μM): no apparent toxic effects | integrity of the monolayers at high concentration ([2]; concentrations in 100 fold excess of the acute EC50): no decrement in the integrity of the monolayers | monolayer resistance ([2]; measured shortly after mounting, highest concentration 200 μM): increased | response to ATP (Ca2+ activated Cl- secretion) in treated monolayers [3]: augments subsequent stimulation of Ca^2+ activated Cl^− secretion; also recorded: elevated
